From ChEMBL document CHEMBL4316646, “Strepantibins A-C: Hexokinase II Inhibitors from a Mud Dauber Wasp Associated Streptomyces sp” (J Nat Prod, 2019)
Where a name gives a salt, the structure may show the parent alone. Active and inactive are the calls of the source. The rule behind the calls is not given here.

B1: Hexokinase-2 (Homo sapiens), P52789 (protein)
chain: MIASHLLAYFFTELNHDQVQKVDQYLYHMRLSDETLLEISKRFRKEMEKGLGATTHPTAAVKMLPTFVRSTPDGTEHGEFLALDLGGTNFRVLWVKVTDNGLQKVEMENQIYAIPEDIMRGSGTQLFDHIAECLANFMDKLQIKDKKLPLGFTFSFPCHQTKLDESFLVSWTKGFKSSGVEGRDVVALIRKAIQRRGDFDIDIVAVVNDTVGTMMTCGYDDHNCEIGLIVGTGSNACYMEEMRHIDMVEGDEGRMCINMEWGAFGDDGSLNDIRTEFDQEIDMGSLNPGKQLFEKMISGMYMGELVRLILVKMAKEELLFGGKLSPELLNTGRFETKDISDIEGEKDGIRKAREVLMRLGLDPTQEDCVATHRICQIVSTRSASLCAATLAAVLQRIKENKGEERLRSTIGVDGSVYKKHPHFAKRLHKTVRRLVPGCDVRFLRSEDGSGKGAAMVTAVAYRLADQHRARQKTLEHLQLSHDQLLEVKRRMKVEMERGLSKETHASAPVKMLPTYVCATPDGTEKGDFLALDLGGTNFRVLLVRVRNGKWGGVEMHNKIYAIPQEVMHGTGDELFDHIVQCIADFLEYMGMKGVSLPLGFTFSFPCQQNSLDESILLKWTKGFKASGCEGEDVVTLLKEAIHRREEFDLDVVAVVNDTVGTMMTCGFEDPHCEVGLIVGTGSNACYMEEMRNVELVEGEEGRMCVNMEWGAFGDNGCLDDFRTEFDVAVDELSLNPGKQRFEKMISGMYLGEIVRNILIDFTKRGLLFRGRISERLKTRGIFETKFLSQIESDCLALLQVRAILQHLGLESTCDDSIIVKEVCTVVARRAAQLCGAGMAAVVDRIRENRGLDALKVTVGVDGTLYKLHPHFAKVMHETVKDLAPKCDVSFLQSEDGSGKGAALITAVACRIREAGQR

Key:
PLC-PRF-5 = test: Cytotoxicity against human PLC/PRF/5 cells assessed as reduction in cell viability by MTT assay; assay type: functional, cell-based
HepG2 = test: Cytotoxicity against human HepG2 cells assessed as reduction in cell viability by MTT assay; assay type: functional, cell-based
SMMC-7721 [1] = test: Cytotoxicity against human SMMC7721 cells assessed as reduction in cell viability by MTT assay; assay type: functional, cell-based
Hexokinase-2 = target: T1, Hexokinase-2 (Homo sapiens, UniProt P52789); test: Inhibition of HK2 (unknown origin) using glucose-6-phosphate dehydrogenase as substrate preincubated for 10 mins followed by substrate addition
T1 sequence (P52789 whole entry): B1 chain

L02 = test: Cytotoxicity against human LO2 cells assessed as reduction in cell viability by MTT assay; assay type: ADME, cell-based
SMMC-7721 [2] = test: Induction of apoptosis in human SMMC7721 cells assessed as formation of apoptotic bodies at 0.5 to 8 uM measured after 24 hrs by DAPI staining based fluorescence microscopic analysis; assay type: functional, cell-based
SMMC-7721 [3] = test: Induction of apoptosis in human SMMC7721 cells assessed as chromatin […] at 0.5 to 8 uM measured after 24 hrs by DAPI staining based fluorescence microscopic analysis; assay type: functional, cell-based
[4] = compound: CC1(C)N=C2C(c3ccccc3)=CC(=O)C(c3ccccc3)=C2O1; test: (§1) Competitive-inhibition of HK2 (unknown origin) assessed as Km at 10 uM using varying levels of glucose-6-phosphate dehydrogenase as substrate by Lineweaver-burk plot analysis; details: Homo sapiens
[5] = compound: COc1cc(-c2ccccc2)c(=O)c(C(C)=O)c(O)c1-c1ccccc1; test: as §1; details: Homo sapiens
[6] = compound: COC1=C(c2ccccc2)C(=O)[C@@](O)(CC(C)=O)C(c2ccccc2)=C1; test: as §1; details: Homo sapiens

Molecule	IC50 (PLC-PRF-5)	IC50 (HepG2)	IC50 (SMMC-7721 [1])	IC50 (Hexokinase-2)	IC50 (L02)	Activity (SMMC-7721 [2])	Activity (SMMC-7721 [3])	Km [4]	Km [5]	Km [6]
COc1cc(-c2ccccc2)c(=O)c(C(C)=O)c(O)c1-c1ccccc1	7.1 µM	9.5 µM	10.3 µM	31.2 µM	17.8 µM					
CC1(C)N=C2C(c3ccccc3)=CC(=O)C(c3ccccc3)=C2O1	11.6 µM	12.3 µM	4.9 µM	34.6 µM	17.6 µM					
COC1=C(c2ccccc2)C(=O)[C@@](O)(CC(C)=O)C(c2ccccc2)=C1	1.9 µM	2.3 µM	2.9 µM	9.8 µM	11.2 µM	Active	Active			
O=c1[nH]cc(F)c(=O)[nH]1 [FLUOROURACIL]	2.8 µM	3.6 µM	2.5 µM		10.6 µM					
COc1cccc2c1C(=O)c1c(O)c3c(c(O)c1C2=O)C[C@@](O)(C(=O)CO)C[C@@H]3O[C@H]1C[C@H](N)[C@H](O)[C@H](C)O1 [DOXORUBICIN HYDROCHLORIDE]	1.9 µM	2.6 µM	1.1 µM		13.5 µM					
B1								290 µM	310 µM	430 µM
